Assay results from ChEMBL document CHEMBL1201862, “PubChem BioAssay data set” (2004).
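Protocol summary: plate cells (96-well), add compound at 5 concentrations, incubate 48 h, interpolate endpoints linearly. GI50 is the concentration that inhibits growth by half.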 Active and inactive are the calls of the source. Cut-off read from the data, not from the text of the source: active = GI50 up to about 1.1 µM and inactive = higher.

Key:
Experiment in all cases: NCI anticancer screen, dose series, 48 h
[1] = test system: 786-0
[2] = test system: A498
[3] = test system: A549
[4] = test system: ACHN
[5] = test system: BT-549
[6] = test system: CAKI-1
[7] = test system: CCRF-CEM
[8] = test system: COLO 205
[9] = test system: DU-145
[10] = test system: EKVX
[11] = test system: HCT-116
[12] = test system: HCT-15
[13] = test system: HL-60
[14] = test system: HOP-62
[15] = test system: HOP-92
[16] = test system: HT-29
[17] = test system: Hs-578T
[18] = test system: IGROV-1
[19] = test system: K562
[20] = test system: KM12
[21] = test system: LOX IMVI
[22] = test system: M14
[23] = test system: MCF7
[24] = test system: MDA-MB-231
[25] = test system: MDA-MB-435
[26] = test system: MDA-N
[27] = test system: MOLT-4
[28] = test system: Malme-3M
[29] = test system: NCI-H226
[30] = test system: NCI-H23
[31] = test system: NCI-H522
[32] = test system: NCI/ADR-RES
[33] = test system: OVCAR-3
[34] = test system: OVCAR-4
[35] = test system: OVCAR-5
[36] = test system: OVCAR-8
[37] = test system: PC-3
[38] = test system: RPMI-8226
[39] = test system: RXF 393
[40] = test system: SF-268
[41] = test system: SF-295
[42] = test system: SF-539
[43] = test system: SK-MEL-28
[44] = test system: SK-MEL-2
[45] = test system: SK-MEL-5
[46] = test system: SK-OV-3
[47] = test system: SN12C
[48] = test system: SNB-19
[49] = test system: SNB-75
[50] = test system: SR
[51] = test system: SW-620
[52] = test system: T47D
[53] = test system: TK-10
[54] = test system: U-251
[55] = test system: UACC-257
[56] = test system: UACC-62
[57] = test system: UO-31
[58] = test system: HCC 2998
[59] = test system: NCI-H460

CN(C)c1ccc(C(C#N)N2CCCN(C(C#N)c3ccc(N(C)C)cc3)C2c2ccc(N(C)C)cc2)cc1 (centres undefined)
GI50 [1]: > 100 µM (inactive)
GI50 [2]: > 100 µM (inactive)
GI50 [3]: > 100 µM (inactive)
GI50 [4]: > 100 µM (inactive)
GI50 [5]: > 100 µM (inactive)
GI50 [6]: > 100 µM (inactive)
GI50 [7]: > 100 µM (inactive)
GI50 [8]: > 100 µM (inactive)
GI50 [9]: > 100 µM (inactive)
GI50 [10]: > 100 µM (inactive)
GI50 [11]: > 100 µM (inactive)
GI50 [12]: > 100 µM
GI50 [13]: > 100 µM (inactive)
GI50 [14]: > 100 µM (inactive)
GI50 [15]: > 100 µM (inactive)
GI50 [16]: > 100 µM (inactive)
GI50 [17]: > 100 µM (inactive)
GI50 [18]: > 100 µM (inactive)
GI50 [19]: > 100 µM (inactive)
GI50 [20]: > 100 µM (inactive)
GI50 [21]: > 100 µM (inactive)
GI50 [22]: > 100 µM (inactive)
GI50 [23]: > 100 µM (inactive)
GI50 [24]: > 100 µM (inactive)
GI50 [25]: > 100 µM (inactive)
GI50 [26]: > 100 µM (inactive)
GI50 [27]: > 100 µM (inactive)
GI50 [28]: > 100 µM (inactive)
GI50 [29]: > 100 µM (inactive)
GI50 [30]: > 100 µM (inactive)
GI50 [31]: > 100 µM (inactive)
GI50 [32]: > 100 µM (inactive)
GI50 [33]: > 100 µM (inactive)
GI50 [34]: > 100 µM (inactive)
GI50 [35]: > 100 µM (inactive)
GI50 [36]: > 100 µM (inactive)
GI50 [37]: > 100 µM (inactive)
GI50 [38]: > 100 µM (inactive)
GI50 [39]: > 100 µM (inactive)
GI50 [40]: > 100 µM (inactive)
GI50 [41]: > 100 µM (inactive)
GI50 [42]: > 100 µM (inactive)
GI50 [43]: > 100 µM (inactive)
GI50 [44]: > 100 µM (inactive)
GI50 [45]: > 100 µM (inactive)
GI50 [46]: > 100 µM (inactive)
GI50 [47]: > 100 µM (inactive)
GI50 [48]: > 100 µM (inactive)
GI50 [49]: > 100 µM (inactive)
GI50 [50]: > 100 µM (inactive)
GI50 [51]: > 100 µM (inactive)
GI50 [52]: > 100 µM (inactive)
GI50 [53]: > 100 µM (inactive)
GI50 [54]: > 100 µM (inactive)
GI50 [55]: > 100 µM (inactive)
GI50 [56]: > 100 µM (inactive)
GI50 [57]: > 100 µM (inactive)

CC1CCC2(O)C3(C)CC4(O)OC2(C1O)C1(O)C3(O)C(OC(=O)c2ccc[nH]2)C(O)(C(C)C)C41C (centres undefined)
GI50 [1]: > 100 µM (inactive)
GI50 [2]: > 100 µM (inactive)
GI50 [3]: > 100 µM (inactive)
GI50 [4]: > 100 µM (inactive)
GI50 [5]: > 100 µM (inactive)
GI50 [6]: > 100 µM (inactive)
GI50 [7]: > 100 µM (inactive)
GI50 [8]: > 100 µM (inactive)
GI50 [9]: > 100 µM (inactive)
GI50 [10]: > 100 µM (inactive)
GI50 [58]: > 100 µM (inactive)
GI50 [11]: > 100 µM (inactive)
GI50 [12]: > 100 µM
GI50 [13]: > 65.8 µM (inactive)
GI50 [14]: > 100 µM (inactive)
GI50 [15]: > 100 µM (inactive)
GI50 [16]: > 100 µM (inactive)
GI50 [17]: > 100 µM (inactive)
GI50 [18]: > 100 µM (inactive)
GI50 [19]: > 20.9 µM (inactive)
GI50 [20]: > 100 µM (inactive)
GI50 [21]: > 100 µM (inactive)
GI50 [22]: > 100 µM (inactive)
GI50 [23]: > 100 µM (inactive)
GI50 [24]: > 100 µM (inactive)
GI50 [25]: > 100 µM (inactive)
GI50 [26]: > 100 µM (inactive)
GI50 [28]: > 100 µM (inactive)
GI50 [29]: > 100 µM (inactive)
GI50 [30]: > 100 µM (inactive)
GI50 [59]: > 100 µM (inactive)
GI50 [31]: > 100 µM (inactive)
GI50 [32]: > 100 µM (inactive)
GI50 [33]: > 100 µM (inactive)
GI50 [34]: > 100 µM (inactive)
GI50 [35]: > 100 µM (inactive)
GI50 [36]: > 100 µM (inactive)
GI50 [37]: > 100 µM (inactive)
GI50 [38]: > 100 µM (inactive)
GI50 [39]: > 100 µM (inactive)
GI50 [40]: > 31.6 µM (inactive)
GI50 [41]: > 100 µM (inactive)
GI50 [42]: > 100 µM (inactive)
GI50 [43]: > 100 µM (inactive)
GI50 [44]: > 100 µM (inactive)
GI50 [45]: > 100 µM (inactive)
GI50 [46]: > 100 µM (inactive)
GI50 [47]: > 100 µM (inactive)
GI50 [48]: > 100 µM (inactive)
GI50 [49]: > 100 µM (inactive)
GI50 [51]: > 100 µM (inactive)
GI50 [52]: > 100 µM (inactive)
GI50 [53]: > 100 µM (inactive)
GI50 [54]: > 100 µM (inactive)
GI50 [55]: > 100 µM (inactive)
GI50 [56]: > 100 µM (inactive)
GI50 [57]: > 100 µM (inactive)
